# What was measured:
# Assay in all cases: relative viability (nuclei count vs DMSO), 5 days (fraction); higher = more cells survive
# [1] = tested on: A-427
# Outline: (§1)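 Five library-drug doses in √10 steps were combined with a fixed anchor-drug dose, or a single drug was given alone, by pin tool to lung cancer cell lines in 1536-well plates the day after seeding. Nuclei were stained and counted after 5 days. Relative viability is the nuclei count in treated wells over that in vehicle wells, taken as the median of duplicate plates.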
# [2] = tested on: ABC-1
# Outline: as §1
# [3] = tested on: BEN
# Outline: as §1
# [4] = tested on: CAL-12T
# Outline: as §1
# [5] = tested on: HARA
# Outline: as §1
# [6] = tested on: LCLC-103H
# Outline: as §1
# [7] = tested on: LOU-NH91
# Outline: as §1
# [8] = tested on: NCI-H1651
# Outline: as §1
# [9] = tested on: NCI-H1666
# Outline: as §1
# [10] = tested on: NCI-H1734
# Outline: as §1
# [11] = tested on: NCI-H1944
# Outline: as §1
# [12] = tested on: NCI-H1975
# Outline: as §1
# [13] = tested on: NCI-H2085
# Outline: as §1
# [14] = tested on: NCI-H2126
# Outline: as §1
# [15] = tested on: NCI-H460
# Outline: as §1
# [16] = tested on: NCI-H520
# Outline: as §1
# [17] = tested on: NCI-H596
# Outline: as §1
# [18] = tested on: NCI-H647
# Outline: as §1
# [19] = tested on: NCI-H661
# Outline: as §1
# [20] = tested on: NCI-H727
# Outline: as §1
# [21] = tested on: NCI-H838
# Outline: as §1
# [22] = tested on: RERF-LC-KJ
# Outline: as §1
smiles,measurement,setting,value
Cc1csc(=NC2CCCCC2)n1/N=C/c1ccc(O)c(O)c1O [MIM1] + C[C@@H](Oc1cc(-c2cnn(C3CCNCC3)c2)cnc1N)c1c(Cl)ccc(F)c1Cl [Crizotinib] (partner 1 µM),relative viability,[1]; first compound 0.2 µM,0.881
same,relative viability,[1]; first compound 0.6325 µM,0.731
same,relative viability,[1]; first compound 2 µM,0.862
same,relative viability,[1]; first compound 6.325 µM,0.713
same,relative viability,[1]; first compound 20 µM,0.214
same,relative viability,[2]; first compound 0.2 µM,1.08
same,relative viability,[2]; first compound 0.6325 µM,1.22
same,relative viability,[2]; first compound 2 µM,0.846
same,relative viability,[2]; first compound 6.325 µM,0.286
same,relative viability,[2]; first compound 20 µM,0.226
same,relative viability,[3]; first compound 0.2 µM,0.893
same,relative viability,[3]; first compound 0.6325 µM,0.72
same,relative viability,[3]; first compound 2 µM,0.982
same,relative viability,[3]; first compound 6.325 µM,0.801
same,relative viability,[3]; first compound 20 µM,0.317
same,relative viability,[4]; first compound 0.2 µM,0.596
same,relative viability,[4]; first compound 0.6325 µM,0.676
same,relative viability,[4]; first compound 2 µM,0.515
same,relative viability,[4]; first compound 6.325 µM,0.438
same,relative viability,[4]; first compound 20 µM,0.283
same,relative viability,[5]; first compound 0.2 µM,1.06
same,relative viability,[5]; first compound 0.6325 µM,1.13
same,relative viability,[5]; first compound 2 µM,1.08
same,relative viability,[5]; first compound 6.325 µM,0.997
same,relative viability,[5]; first compound 20 µM,0.138
same,relative viability,[6]; first compound 0.2 µM,1
same,relative viability,[6]; first compound 0.6325 µM,1
same,relative viability,[6]; first compound 2 µM,1.1
same,relative viability,[6]; first compound 6.325 µM,0.909
same,relative viability,[6]; first compound 20 µM,0.985
same,relative viability,[7]; first compound 0.2 µM,0.748
same,relative viability,[7]; first compound 0.6325 µM,0.728
same,relative viability,[7]; first compound 2 µM,0.683
same,relative viability,[7]; first compound 6.325 µM,0.675
same,relative viability,[7]; first compound 20 µM,0.392
same,relative viability,[8]; first compound 0.2 µM,0.921
same,relative viability,[8]; first compound 0.6325 µM,0.878
same,relative viability,[8]; first compound 2 µM,0.827
same,relative viability,[8]; first compound 6.325 µM,0.832
same,relative viability,[8]; first compound 20 µM,0.584
same,relative viability,[9]; first compound 0.2 µM,0.926
same,relative viability,[9]; first compound 0.6325 µM,0.92
same,relative viability,[9]; first compound 2 µM,0.958
same,relative viability,[9]; first compound 6.325 µM,0.663
same,relative viability,[9]; first compound 20 µM,0.238
same,relative viability,[10]; first compound 0.2 µM,0.657
same,relative viability,[10]; first compound 0.6325 µM,0.677
same,relative viability,[10]; first compound 2 µM,0.596
same,relative viability,[10]; first compound 6.325 µM,0.379
same,relative viability,[10]; first compound 20 µM,0.242
same,relative viability,[11]; first compound 0.2 µM,1.11
same,relative viability,[11]; first compound 0.6325 µM,1.09
same,relative viability,[11]; first compound 2 µM,0.754
same,relative viability,[11]; first compound 6.325 µM,0.811
same,relative viability,[11]; first compound 20 µM,0.323
same,relative viability,[12]; first compound 0.2 µM,0.908
same,relative viability,[12]; first compound 0.6325 µM,1.1
same,relative viability,[12]; first compound 2 µM,0.871
same,relative viability,[12]; first compound 6.325 µM,0.545
same,relative viability,[12]; first compound 20 µM,0.482
same,relative viability,[13]; first compound 0.2 µM,0.851
same,relative viability,[13]; first compound 0.6325 µM,0.85
same,relative viability,[13]; first compound 2 µM,0.761
same,relative viability,[13]; first compound 6.325 µM,0.825
same,relative viability,[13]; first compound 20 µM,0.847
same,relative viability,[14]; first compound 0.2 µM,1.05
same,relative viability,[14]; first compound 0.6325 µM,1.05
same,relative viability,[14]; first compound 2 µM,1.03
same,relative viability,[14]; first compound 6.325 µM,0.963
same,relative viability,[14]; first compound 20 µM,0.659
same,relative viability,[15]; first compound 0.2 µM,0.853
same,relative viability,[15]; first compound 0.6325 µM,0.994
same,relative viability,[15]; first compound 2 µM,0.374
same,relative viability,[15]; first compound 6.325 µM,0.205
same,relative viability,[15]; first compound 20 µM,0.031
same,relative viability,[16]; first compound 0.2 µM,0.688
same,relative viability,[16]; first compound 0.6325 µM,0.787
same,relative viability,[16]; first compound 2 µM,0.862
same,relative viability,[16]; first compound 6.325 µM,0.578
same,relative viability,[16]; first compound 20 µM,0.498
same,relative viability,[17]; first compound 0.2 µM,0.965
same,relative viability,[17]; first compound 0.6325 µM,1.11
same,relative viability,[17]; first compound 2 µM,0.832
same,relative viability,[17]; first compound 6.325 µM,0.921
same,relative viability,[17]; first compound 20 µM,0.741
same,relative viability,[18]; first compound 0.2 µM,1.05
same,relative viability,[18]; first compound 0.6325 µM,1.17
same,relative viability,[18]; first compound 2 µM,1.02
same,relative viability,[18]; first compound 6.325 µM,0.719
same,relative viability,[18]; first compound 20 µM,0.354
same,relative viability,[19]; first compound 0.2 µM,0.973
same,relative viability,[19]; first compound 0.6325 µM,0.953
same,relative viability,[19]; first compound 2 µM,0.875
same,relative viability,[19]; first compound 6.325 µM,0.677
same,relative viability,[19]; first compound 20 µM,0.531
same,relative viability,[20]; first compound 0.2 µM,0.836
same,relative viability,[20]; first compound 0.6325 µM,0.81
same,relative viability,[20]; first compound 2 µM,0.795
same,relative viability,[20]; first compound 6.325 µM,0.534
same,relative viability,[20]; first compound 20 µM,0.349
same,relative viability,[21]; first compound 0.2 µM,0.818
same,relative viability,[21]; first compound 0.6325 µM,0.988
same,relative viability,[21]; first compound 2 µM,0.554
same,relative viability,[21]; first compound 6.325 µM,0.688
same,relative viability,[21]; first compound 20 µM,0.699
same,relative viability,[22]; first compound 0.2 µM,0.787
same,relative viability,[22]; first compound 0.6325 µM,0.836
same,relative viability,[22]; first compound 2 µM,0.708
same,relative viability,[22]; first compound 6.325 µM,0.499
same,relative viability,[22]; first compound 20 µM,0.267
